# Laboratory results published in patent US8426394B2, “Progesterone antagonists such as CDB-4124 in the treatment of endometriosis, uterine fibroids, dysmenorrhea, breast cancer, etc” (Repros Therapeutics Inc., priority 2008, dated 2013).
# Columns and labels:
# [1] = system: progesterone-induced endometrial proliferation in the rabbit uterus; test: anti-McGinty and anti-Clauberg assays (biological activity in the rabbit uterus); format: in vivo; settings: in comparison to RU 486 and CDB-2914
# Source text: Also given in Table 1 are the relative biological activities of the same compounds in the rabbit uterus by the anti-McGinty and anti-Clauberg assays. Compound CDB-2914 (listed at the end of the Table) was used as the control or reference compound (rabbit Biological Activity=1.00) for these experiments because results of experiments using CDB-2914 have been published before (Hild-Petito et al., 1996; Passaro et al., 1997; Reel et al., 1998; Lamer et al., 2000). For the anti-McGinty test, immature female rabbits received a subcutaneous injection of 5 μg estradiol in 10% ethanol/sesame oil daily for 6 consecutive days. On day 7, animals underwent sterile abdominal surgery to ligate a 3-4 cm segment of both uterine horns. The test compound in appropriate solvent was injected intraluminally into the ligated segment of one uterine horn and vehicle alone into the other. […] Five micron sections stained with hematoxylin and cosin were evaluated microscopically for the degree of endometrial glandular proliferation. The percent inhibition of endometrial proliferation for each rabbit was calculated and the mean of the group of five animals recorded. […] Five micron sections stained with hematoxylin and eosin were evaluated microscopically for the degree of endometrial glandular proliferation. […]
# [2] = system: pre-menopausal adult women diagnosed with endometriosis; test: Six month study of Proellex (CDB-4124) in the treatment of endometriosis; format: in vivo, human
# Protocol: Pain reduction also occurred more rapidly than with the active control, Lucrin®. The response of pain to treatment in this study was analyzed in two ways. Patients in the study maintained daily pain diaries to record the severity and frequency of pain. In addition, at each office visit, patients filled out endometriosis symptom surveys that included a questionnaire that evaluated intensity of pain on a bad day on a scale of 0-10 with 10 being the greatest intensity. […] There appeared to be a dose dependent effect on pain reduction. […] This decrease in duration of pain was statistically better (p=0.0012) than the 117.8 (74%; standard deviation 51.4 days) pain free days achieved with Lucrin®. […] Patients on CDB-4124 12.5 mg and 25 mg doses had 115.9 (66%; standard deviation 69.2 days) and 133.6 (75%; standard deviation 27.4 days) pain free days, respectively. […] The 25 mg and 12.5 mg doses of CDB-4124 were not statistically different from Lucrin®. […] The intensity of pain was assessed by the question: “On a […], with 0 being no pain and 10 being extreme pain, how intense was your pain on a bad day?” The mean scores for intensity of pain at baseline were 6.3 for the CDB-4124 groups and 6.1 for the Lucrin® group. […] At month three all four active treatment groups had statistically significant reduction in pain compared with baseline, with the following scores: 3.7 (p=0.03) for 12.5 mg CDB-4124, 3.2 (p=0.03) for 25 mg CDB-4124, 1.6 (p=0.015) for 50 mg CDB-4124 and 1.5 (p=0.016) for Lucrin®. These dose related reductions continued until month six when the values for pain intensity were 2.0 (p=0.008), 2.8 (p=0.023), 0.6 (p=0.004) and 0.7 (p=0.016), respectively. Two months after stopping treatment pain returned and was of similar intensity in all four treatment groups.
# [3] = system: women with uterine fibroids; test: Three month study in women with uterine fibroids; format: in vivo, human; settings: 12.5 mg or 25 mg daily for three months, begun at day 5 of cycle
# Protocol: In a separate study, women with uterine fibroids were administered daily doses of 12.5 mg, 25 mg or 50 mg CDB-4124 for a three month period, beginning at day 5 of each woman's menstrual cycle.
# endometrium = test: Endometrial biopsies of women in the CDB-4124 treatment groups; format: in vivo, human
# Protocol: Endometrial biopsies were taken from 27 women exposed to 12.5 mg, 25 mg or 50 mg CDB-4124 for six months and 31 women with uterine fibroids exposed to 12.5 or 25 mg CDB-4124 for three months. Specimens were evaluated in a treatment blinded fashion utilizing the WHO diagnostic schema (Silverberg et al., tumors of the uterine corpus: epithelial tumors and related lesions. Tavassoli F A, Stratton M R, reditors. WHO Classification of Tumors: Pathology and Genetics of Tumors of the Breast and Female Genital Organs. Lyon, France: IARC Press, 2003: 221-232). A consensus primary end point result was determined for each specimen by majority (two or more of three pathologists agree), or in the event of all pathologists disagreeing the “worst” diagnosis of the three was assigned. Additional findings were recorded using a structured data collection instrument. All raw data was provided to the reviewing pathologists, who undertook an independent analysis that was the basis for their conclusions.
# opiate μ receptor (MOP) = opiate μ receptor (MOP) (Homo sapiens, UniProt P35372); test: Affinity for and inhibition of opiate μ receptor; format: binding
# [4] = system: pre-menopausal adult women diagnosed with endometriosis; test: Six month study of Proellex (CDB-4124) in the treatment of endometriosis; format: in vivo, human; settings: for change in endometrial thickness from baseline (ultrasound): statistically insignificant
# [5] = Serum corticosterone in rats; settings: progesterone, CDB-4124 and RU-486 groups compared
# opiate μ receptor (MOP), sequence (P35372 whole entry): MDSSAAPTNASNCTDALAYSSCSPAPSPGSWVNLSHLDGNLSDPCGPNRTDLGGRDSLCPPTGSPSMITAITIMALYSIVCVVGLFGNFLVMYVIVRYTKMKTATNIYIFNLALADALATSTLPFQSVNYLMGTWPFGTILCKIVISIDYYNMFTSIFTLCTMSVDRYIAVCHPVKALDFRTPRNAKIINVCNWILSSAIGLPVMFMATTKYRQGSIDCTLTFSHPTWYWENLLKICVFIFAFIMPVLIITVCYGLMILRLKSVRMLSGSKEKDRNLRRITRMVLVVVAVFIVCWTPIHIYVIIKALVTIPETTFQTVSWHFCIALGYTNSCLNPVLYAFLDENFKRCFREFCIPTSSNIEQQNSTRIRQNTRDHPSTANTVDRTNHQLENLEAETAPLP
structure (smiles),measurement,setting,value
"COCC(=O)[C@@]1(OC(C)=O)CC[C@H]2[C@@H]3CCC4=CC(=O)CCC4=C3[C@@H](c3ccc(N(C)C)cc3)C[C@@]21C [CDB-4124, 21-methoxy-17α-acetoxy-11β-(4 N,N-dimethylaminophenyl)-19-norpregna-4,9-diene-3,20-dione]",antiprogestin activity in the rabbit uterus,[1],strong
same,intensity of pain on a bad day (score),"[2]; month six, 12.5 mg CDB-4124, scale 0-10, p=0.008",2.0
same,intensity of pain on a bad day (score),"[2]; month six, 25 mg CDB-4124, scale 0-10, p=0.023",2.8
same,intensity of pain on a bad day (score),"[2]; month six, 50 mg CDB-4124, scale 0-10, p=0.004",0.6
same,intensity of pain on a bad day (score),"[2]; month three, 12.5 mg CDB-4124, scale 0-10, baseline 6.3, p=0.03",3.7
same,intensity of pain on a bad day (score),"[2]; month three, 25 mg CDB-4124, scale 0-10, baseline 6.3, p=0.03",3.2
same,intensity of pain on a bad day (score),"[2]; month three, 50 mg CDB-4124, scale 0-10, baseline 6.3, p=0.015",1.6
same,mean endometrial thickness,[3],less than 20 mm
same,subjects with a significant bleeding episode,[3],None
same,consensus primary diagnosis of endometrial biopsy (WHO schema),"endometrium; 12.5, 25 or 50 mg for six months, 12.5 or 25 mg for three months",benign endometrium
same,blood vessel wall thickening and latticed capillary patterns,endometrium; endometrial biopsies,did not induce
same,most prominent secondary finding within the benign category,"endometrium; endometrial biopsies, more prominent at lowest doses",cystic dilation of glands
same,endometrial proliferation,"endometrium; every concentration tested (12.5, 25, 50 mg)",suppressed
same,affinity for / inhibition of the opiate μ receptor (MOP),opiate μ receptor (MOP),has affinity for and can inhibit
same,increase in endometrial thickness from baseline (ultrasound),"[4]; 12.5 mg dose, after six months, begun at day 5 of cycle, statistically significant (p 0.016)",10.9 mm
same,change in endometrial thickness from baseline (ultrasound),"[4]; 25 mg dose, after six months, begun at day 5 of cycle",9.8 mm
same,change in endometrial thickness from baseline (ultrasound),"[4]; 50 mg dose, after six months, begun at day 5 of cycle",3.9 mm
same,biomarkers of bone resorption,"[4]; any of the dose arms of CDB-4124, three and six months of treatment",no significant changes
same,differences in serum corticosterone between treatment groups,[5],No differences
